Patent EP2680005A1, “Lipid analysis” (Rheinische Friedrich-Wilhelms-Universität Bonn, priority 2012, dated 2014)
Where two headings read alike, the source gives them in different places.

Tests used:
[1] = system: HuH7 hepatoma cells; experiment: Pulse chase labeling with alkyne fatty acids; type: cell-based
Description: Alkyne lipid precursors are supplemented to cell culture where they become incorporated into cellular lipids, e.g. into phosphatidylcholine (PC). These are extracted and reacted with the fluorogenic dye 3-azido-7-hydroxycoumarin in the presence of copper(I). […] (a) Alkyne-Bodipy at concentrations as indicated was reacted with either 60 µM 3-azido-7-hydroxycoumarin and 2mM Cu(I)BF4 (+) or incubated in ethanol for 3h at 42°C (-). The samples were separated by TLC using hexane/ethyl acetate 1/1 as the mobile phase. The dried TLC plate was first imaged with excitation at 485 nm and emission at >520 nm (left panel, Bodipy channel), followed by treatment with 4% Hünig's base in hexane and imaging with excitation at 420 nm and emission at 484-504 nm (right panel, Coumarin channel). (b, c) Influence of dye concentration and base treatment. A172 cells were grown in a 15 cm dish and labeled with 100 µM alkyne-palmitate/alkyne-oleate 1/1 for 2 h. Lipids were extracted and dissolved in 2 ml CHCl3. 2 µl of this extract were reacted with 2 mM Cu(I)BF4 and the indicated concentration of 3-azido-7-hydroxycoumarin in 37 µl ethanol/MeCN/CHCl3 24/6/7 at 42°C for 3 h. Samples were separated by TLC and imaged (b) before (right panel) and after (left panel) treatment with 4%-Hünig's base in hexane for the times indicated. (c) Plot of the integrated fluorescence intensity of lane 6 of panel b (left) and from the corresponding one second exposure before base treatment. […] The cholesterol ester of alkyne-oleate at the indicated concentrations was subjected to detection reaction, TLC separation and fluorescence imaging using the standard protocol. […] (b) Quantification of integrated fluorescence of panel a. […] Signals were quantified either by scraping, extraction and scintillation counting (panel b, ^3H-oleate) or by integration of signals form the fluorescence image (panel b, alkyne-oleate). […] Lipids extracts were dried and subjected to detection reaction, TLC separation and fluorescence imaging using the standard protocol. […] (b) Quantification of the signals in panel a. […]

[2] = system: Drosophila melanogaster L3 larvae; experiment: Alkyne fatty acid labeling of opened single L3 larvae; conditions: 50 µM, 30 min
Description: (§1) Alkyne lipid precursors are supplemented to cell culture where they become incorporated into cellular lipids, e.g. into phosphatidylcholine (PC). These are extracted and reacted with the fluorogenic dye 3-azido-7-hydroxycoumarin in the presence of copper(I). […] (a) Alkyne-Bodipy at concentrations as indicated was reacted with either 60 µM 3-azido-7-hydroxycoumarin and 2mM Cu(I)BF4 (+) or incubated in ethanol for 3h at 42°C (-). The samples were separated by TLC using hexane/ethyl acetate 1/1 as the mobile phase. […] (c) Plot of the integrated fluorescence intensity of lane 6 of panel b (left) and from the corresponding one second exposure before base treatment. […] The cholesterol ester of alkyne-oleate at the indicated concentrations was subjected to detection reaction, TLC separation and fluorescence imaging using the standard protocol. […] (b) Quantification of integrated fluorescence of panel a. […] Signals were quantified either by scraping, extraction and scintillation counting (panel b, ^3H-oleate) or by integration of signals form the fluorescence image (panel b, alkyne-oleate). […] Lipids extracts were dried and subjected to detection reaction, TLC separation and fluorescence imaging using the standard protocol. […] (b) Quantification of the signals in panel a. […]

[3] = system: Freshly isolated mouse hepatocytes; experiment: Comparison of 3H-oleate and alkyne-oleate labeling (click/TLC fluorescence vs scintillation counting); type: cell-based
Description: as §1

[4] = system: Freshly isolated mouse hepatocytes; experiment: Hepatocyte fatty acid metabolism, time course with alkyne or natural fatty acids; type: cell-based; conditions: 50 µM fatty acid, all labeling times; fluorescent click analysis
Description: as §1

[5] = system: A-172 cells; experiment: Alkyne-sphinganine labeling of cultivated cells, click analysis; type: cell-based; conditions: cultivated 1 h with the compound
Description: as §1

incorporation into PE [2] | amount of label in neutral lipids [3] [%] | incorporation into TAG compared to PC [4] | SMILES | fate of label after chase [1] | fate of label after chase ([1]; 3 min pulse, 30 min chase) | distribution of label after pulse ([1]; 3 min pulse, no chase) | labeling of cellular lipids [5]
large amounts | 49 |  | C#CCCCCCCC/C=C\CCCCCCCC(=O)O [alkyne-oleate, Nonadec-9-cis-en-18-ynoic acid] | metabolized to the final products PC, PE, TAG and CE |  |  | 
much less |  | equal distribution between PC and TAG | C#CCCCCCCCCCCCCCCC(=O)O [alkyne-palmitate, 16-Heptadecynoic acid] |  | metabolized to the final products PC, PE, TAG and CE | much of the fatty acids were found as the free substance, or in biosynthetic intermediates such as PA and DAG | 
 |  |  | C#CCCCCCCCCCCCCC[C@@H](O)[C@@H](N)CO [alkyne-sphinganine, (2S,3R)-2-Aminooctadec-17-yn-1,3-diol] |  |  |  | strong labeling of ceramide and other sphingolipids
